# Data from patent publication US8217063B2, “Lactam-substituted dicarboxylic acids and use thereof” (Bayer Intellectual Property GmbH, priority 2007, dated 2012).
# Tests used:
# [1] = molecular target: T1, recombinant guanylate cyclase reporter cell line (Rattus norvegicus, UniProt P20595); assay: sGC-activating activity in the CHO reporter cell in vitro; type: cell-based
# T1 construct: expressed in transfected cells; host or cells: CHO
# T1 sequence (P20595 1-619): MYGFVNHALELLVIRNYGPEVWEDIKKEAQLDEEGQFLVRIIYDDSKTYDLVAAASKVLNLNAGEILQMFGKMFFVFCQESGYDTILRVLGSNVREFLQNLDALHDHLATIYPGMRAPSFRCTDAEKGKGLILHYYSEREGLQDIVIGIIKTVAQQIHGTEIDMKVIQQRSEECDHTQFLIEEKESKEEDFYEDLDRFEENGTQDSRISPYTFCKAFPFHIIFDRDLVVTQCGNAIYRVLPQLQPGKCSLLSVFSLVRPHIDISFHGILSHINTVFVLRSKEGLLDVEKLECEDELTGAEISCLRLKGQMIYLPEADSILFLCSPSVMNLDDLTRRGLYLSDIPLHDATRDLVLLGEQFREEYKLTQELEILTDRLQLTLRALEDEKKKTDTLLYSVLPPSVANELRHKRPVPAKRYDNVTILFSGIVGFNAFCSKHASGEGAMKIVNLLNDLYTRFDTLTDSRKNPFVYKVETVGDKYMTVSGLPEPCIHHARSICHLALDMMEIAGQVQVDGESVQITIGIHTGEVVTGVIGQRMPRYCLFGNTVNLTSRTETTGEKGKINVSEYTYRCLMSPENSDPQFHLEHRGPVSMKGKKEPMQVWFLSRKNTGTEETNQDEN
# T1 sequence (P19686 1-690 partner): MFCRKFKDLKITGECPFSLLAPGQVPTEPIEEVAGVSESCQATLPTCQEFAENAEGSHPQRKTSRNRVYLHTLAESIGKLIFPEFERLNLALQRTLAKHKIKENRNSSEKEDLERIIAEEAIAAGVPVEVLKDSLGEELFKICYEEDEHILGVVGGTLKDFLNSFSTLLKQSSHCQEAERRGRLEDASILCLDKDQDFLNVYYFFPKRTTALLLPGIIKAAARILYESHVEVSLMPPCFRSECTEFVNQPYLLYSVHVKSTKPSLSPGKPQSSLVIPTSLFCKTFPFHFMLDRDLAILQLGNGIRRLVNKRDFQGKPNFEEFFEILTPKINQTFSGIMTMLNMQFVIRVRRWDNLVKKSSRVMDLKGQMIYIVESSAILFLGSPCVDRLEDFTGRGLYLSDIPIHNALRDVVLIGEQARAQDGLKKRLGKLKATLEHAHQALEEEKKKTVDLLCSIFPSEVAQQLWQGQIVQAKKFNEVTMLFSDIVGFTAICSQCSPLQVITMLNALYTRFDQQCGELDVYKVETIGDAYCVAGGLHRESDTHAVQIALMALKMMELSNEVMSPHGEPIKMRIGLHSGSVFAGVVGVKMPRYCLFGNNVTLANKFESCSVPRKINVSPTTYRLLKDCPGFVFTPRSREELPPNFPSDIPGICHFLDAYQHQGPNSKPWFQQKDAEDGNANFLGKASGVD
# Method: B-3. Action at Recombinant Guanylate Cyclase Reporter Cell Lines
# The cellular action of the compounds according to the invention is determined using a recombinant guanylate cyclase reporter cell line, as described in F. Wunder et al., Anal. Biochem. 339, 104-112 (2005).
# [2] = tested on: saphenous artery; assay: Vasorelaxant effect in vitro (phenylephrine-contracted artery rings); set-up: species or system Rabbits; details: Oryctolagus cuniculus; rabbit saphenous artery rings, contraction induced by phenylephrine
# Method: B-1. Vasorelaxant Effect In Vitro:
# Rabbits are anesthetized and sacrificed by intravenous injection of thiopental sodium (about 50 mg/kg) and exsanguinated. The saphenous artery is removed and divided into rings 3 mm wide. The rings are mounted singly on in each case a pair of triangular hooks open at the end and made of 0.3 mm-thick special wire (Remanium®). Each ring is placed under an initial tension in 5 ml organ baths with Krebs-Henseleit solution which is at 37° C., is gassed with carbogen and has the following composition: NaCl 119 mM; KCl 4.8 mM; CaCl2×2H2O 1 mM; MgSO4×7H2O 1.4 mM; KH2PO4 1.2 mM; NaHCO3 25 mM; glucose 10 mM; bovine serum albumin 0.001%. The force of contraction is detected with Statham UC2 cells, amplified and digitized via A/D converters (DAS-1802 HC, Keithley Instruments, Munich) and recorded in parallel on chart recorders. Contractions are induced by addition of phenylephrine.
# After several (generally 4) control cycles, the substance to be investigated is added in each further run in increasing dosage, and the height of the contraction achieved under the influence of the test substance is compared with the height of the contraction reached in the last preceding run. The concentration necessary to reduce the contraction reached in the preceding control by 50% is calculated from this (IC50). The standard application volume is 5 μl. The proportion of DMSO in the bath solution corresponds to 0.1%.
# [3] = molecular target: T2, Heme-containing sGC (Rattus norvegicus, UniProt P20595); assay: Stimulation of recombinant soluble guanylate cyclase (sGC) in vitro, heme-containing enzyme; type: biochemical; details: 0.0 μM Example 3
# T2 construct: made in house; host or cells: baculovirus/Sf9
# T2 sequence (P20595 1-619): T1 sequence (P20595 1-619)
# T2 sequence (P19686 1-690 partner): T1 sequence (P19686 1-690 partner)
# Description: B-2. Stimulation of Recombinant Soluble Guanylate Cyclase (sGC) In Vitro:
# Hoenicka, E. M. Becker, H. Apeler, T. Sirichoke, H. Schroeder, R. Gerzer and J.-P. Stasch, “Purified soluble guanylyl cyclase expressed in a baculovirus/Sf9 system: Stimulation by YC-1, nitric oxide, and carbon oxide”, J. Mol. Med. 77 (1999), 14-23. The heme-free guanylate cyclase is obtained by adding Tween 20 to the sample buffer (0.5% in the final concentration).
# The activation of sGC by a test substance is reported as n-fold stimulation of the basal activity.
MEC (minimum effective concentration) [1],IC50 [2],Compound,also measured
1 nM,,"O=C(O)c1ccc(CCC(/C=C/c2ccccc2OCCCCCN2CCCCC2=O)Cc2ccc(C(=O)O)cc2)cc1 (racemic) [Example 7, 4-[(4E)-3-(4-Carboxybenzyl)-5-(2-{[5-(2-oxopiperidin-1-yl)pentyl]oxy}phenyl)pent-4-en-1-yl]-benzoic acid]",
1 nM,,"O=C(O)c1ccc(CCC(/C=C/c2ccccc2OCCCCCN2CCOC2=O)Cc2ccc(C(=O)O)cc2)cc1 (racemic) [Example 8, 4-[(4E)-3-(4-Carboxybenzyl)-5-(2-{[5-(2-oxo-1,3-oxazolidin-3-yl)pentyl]oxy}phenyl)pent-4-en-1-yl]benzoic acid]",
3 nM,,"CN1CCCN(CCCCCOc2ccccc2/C=C/C(CCc2ccc(C(=O)O)cc2)Cc2ccc(C(=O)O)cc2)C1=O (racemic) [Example 10, 4-[(4E)-3-(4-Carboxybenzyl)-5-(2-{[5-(3-methyl-2-oxotetrahydropyrimidin-1(2H)-yl)pentyl]oxy}-phenyl)pent-4-en-1-yl]benzoic acid]",
2 nM,330 nM,"O=C(O)c1ccc(CCC(/C=C/c2ccccc2OCCCN2CCOCC2=O)Cc2ccc(C(=O)O)cc2)cc1 (single isomer, unassigned) [Example 4, 4-[(4E)-3-(4-Carboxybenzyl)-5-{2-[3-(3-oxomorpholin-4-yl)propoxy]phenyl}pent-4-en-1-yl]-benzoic acid]",
3 nM,135 nM,"O=C(O)c1ccc(CCC(/C=C/c2cc(F)ccc2OCCCN2CCCC2=O)Cc2ccc(C(=O)O)cc2)cc1 (single isomer, unassigned) [Example 6, 4-[(4E)-3-(4-Carboxybenzyl)-5-{5-fluoro-2-[3-(2-oxopyrrolidin-1-yl)propoxy]phenyl}pent-4-en-1-yl]benzoic acid]",
3 nM,255 nM,"O=C(O)c1ccc(CCC(/C=C/c2ccccc2OCCCN2CCCC2=O)CCc2ccc(C(=O)O)cc2)cc1 [Example 2, 4-[(4E)-3-[2-(4-Carboxyphenyl)ethyl]-5-{2-[3-(2-oxopyrrolidin-1-yl)propoxy]phenyl}pent-4-en-1-yl]benzoic acid]",
1 nM,,"CC1OCCN(CCCCCOc2ccccc2/C=C/C(CCc2ccc(C(=O)O)cc2)Cc2ccc(C(=O)O)cc2)C1=O (centres unmarked) [Example 9, 4-[(4E)-3-(4-Carboxybenzyl)-5-(2-[5-(2-methyl-3-oxomorpholin-4-yl)pentyl]oxy 1-phenyl)pent-4-en-1-yl]benzoic acid]",

# The remaining lines, values behind:
Compound,MEC (minimum effective concentration) [1],IC50 [2],also measured
"O=C(O)c1ccc(CCC(/C=C/c2ccccc2OCCCCN2CCCC2=O)Cc2ccc(C(=O)O)cc2)cc1 (racemic) [Example 11, 4-[(4E)-3-(4-Carboxybenzyl)-5-{2-[4-(2-oxopyrrolidin-1-yl)butoxy]phenyl}pent-4-en-1-yl]benzoic acid]",<1 nM,,
"O=C(O)c1ccc(CCC(/C=C/c2ccccc2OCCN2CCOC2=O)Cc2ccc(C(=O)O)cc2)cc1 (racemic) [Example 12, 4-[(4E)-3-(4-Carboxybenzyl)-5-{2-[2-(2-oxo-1,3-oxazolidin-3-yl)ethoxy]phenyl}pent-4-en-1-yl]-benzoic acid]",100 nM,,
"O=C(O)c1ccc(CCC(/C=C/c2ccccc2OCCCN2CCOC2=O)Cc2ccc(C(=O)O)cc2)cc1 (single isomer, unassigned) [Example 5, 4-[(4E)-3-(4-Carboxybenzyl)-5-{2-[3-(2-oxo-1,3-oxazolidin-3-yl)propoxy]phenyl}pent-4-en-1-yl]-benzoic acid]",,58 nM,
"CCN(CC)[N+]([O-])=NO [DEA/NO, 2-(N,N-diethylamino)diazenolate 2-oxide, reference compound]",,,Stimulation (n-fold) of sGC by DEA/NO alone ([3]; 0.1 μM DEA/NO): 18.5 n-fold
"O=C(O)c1ccc(CCC(/C=C/c2cc(F)ccc2OCCCN2CCCC2=O)CCc2ccc(C(=O)O)cc2)cc1 [Example 1, 4-[(4E)-3-[2-(4-Carboxyphenyl)ethyl]-5-{5-fluoro-2-[3-(2-oxopyrrolidin-1-yl)propoxy]phenyl}-pent-4-en-1-yl]benzoic acid]",3 nM,390 nM,
"O=c1onc2cnc3ccccc3n12 [ODQ, 1H-1,2,4-oxadiazole-(4,3a)-quinoxalin-1-one, reference compound]",,,Stimulation (n-fold) of sGC with ODQ alone ([3]; 10 μM ODQ): 3.9 n-fold
